Results published in patent USRE36187E, “Acyclic pyrrolo [2,3-d]pyrimidine analogs as antiviral agents” (The Regents of the University of Michigan, priority 1994, dated 1999).

Columns and labels:
HCMV [1] = assay: HCMV plaque (focus) reduction assay in HFF cells; type: cell-based, human cytomegalovirus (Towne strain); conditions: in words
Description: (§1) The 148 strain of HSV-1 was used in most experiments and was provided by Dr. T. W. Schafer of Schering Corporation. The HF strain of HSV-1 was used in selected experiments and was obtained from Dr. G. H. Cohen, University of Pennsylvania. The Towne strain, plaque-purified isolate Po, of HCMV was a gift of Dr. Mark Stinski, University of Iowa.
Stock HCMV was prepared by infecting HFF cells at a multiplicity of infection (m.o.i.) of less than 0.01 plaque-forming units (p.f.u.) per cell. Cell growth medium was changed every four days until cytopathology was evident in all cells (approximately 21 days). Supernatant fluids were retained as the virus stock. Four days later, the remaining cells were disrupted by three cycles of freeze-thawing and the cell plus medium held as an additional source of virus. Storage was in liquid nitrogen.
(§2) HCMV was titered in 24-well cluster dishes which were planted to contain 5×10^4 HFF cells/well, grown as described above. When the cells were 70 to 80% confluent, 0.2 ml of the virus suspension was added per wall and adsorbed as described above. At least three ten-fold dilutions of each preparation were used. Following virus adsorption, the cell sheets were overlayed with 0.5% methocel (4000 CPS) in maintenance medium [(MEM) with 1.1 gm/liter NaHCO3, 100 units/ml penicillin G, 100 μg/ml streptomycin, and 5% fetal bovine serum]. The cultures were incubated in a humidified atmosphere of 4% CO2 -96% air. Viral foci were visible 5 to 7 days after infection using at least 10-fold magnification. Cells were fixed and stained by a 10-minute exposure to a 0.1% solution of crystal violet in 20% methanol 7 to 12 days after infection. Microscopic foci were enumerated at 20-fold magnification using a Nikon Profile Projector.
The effect of compounds of the replication of HCMV has been measured using both a plaque (focus) reduction assay and a titer (yield) reduction assay. For the former, HFF cells in 24-well culture dishes were infected with approximately 50 p.f.u. of HCMV per well using the procedures detailed above. Compounds dissolved in growth medium were added in three to six selected concentrations to triplicate wells following virus adsorption. Following incubation at 37° C. for 7 to 10 days, cell sheets were fixed, stained and microscopic foci were enumerated as described above. Drug effects were calculated as a percentage of reduction in number of foci in the presence of each drug concentration compared to the number observed in the absence of drug. DHPG (ganciclovir) was used as a positive control in all experiments.
(§3) Dose-response relationships were used to compare drug effects. These were constructed by linearly regressing the percent inhibition of parameters derived in the preceding sections against log drug concentrations. The 50% inhibitory (I50) concentrations were calculated from the regression lines using the methods described by Goldstein. See Goldstein, A., Biostatistics: An Introductory Text, MacMillan, N.Y., 1964, pp. 156-161. Along with the I50 concentration for visual cytotoxicity, the averaged I50 concentrations are compared to I50 concentrations for inhibition for HCMV or HSV-1 replication. Compounds for which the ratio of cytotoxicity I50 concentrations to antiviral I50 concentrations (in vitro therapeutic index) were greater than 10, were considered for further study.

[2] = Visual cytotoxicity in BSC-1 cells; type: cell-based, African green monkey; conditions: monkey, visual cytotoxicity at time of HSV-1 plaque enumeration, read-out: 50% Inhibitory Concentration, Cytotoxicity BSC
Excerpt: Cytotoxicity produced in HFF and BSC-1 cells was estimated by visual scoring of cells not affected by virus infection in the HCMV and HSV-1 plaque reduction assays. Cytopathology was estimated at 35- and 60-fold magnification and scored on a zero to four plus basis. Wells were scored on the day of staining.

KB cells = assay: Growth of KB cells (population doubling); type: cell-based, human
Description: (§4) Population doubling times and cell viability were measured in uninfected HFF and/or KB cells. Cells were planted in replicate 6-well plastic tissue culture dishes or in 25 cm^2 flasks as described above in part 1. Following an incubation period during which cells attached to the substrate, medium was decanted, the cell sheet rinsed once with HBS, and fresh medium added. The medium consisted of MEM(E) with 1.1 gm NaHCO3 /liter and 10% fetal bovine or calf serum plus appropriate log or half-log concentrations of drug. After additional periods of incubation from 1 to 72 hours at 37° C., cells were harvested by means of 0.05% trypsin plus 0.02% EDTA in a HEPES-buffered salt solution. Cells were enumerated using either a Coulter counter or a hemocytometer and viability determining using […] dye exclusion.
In more extensive cytotoxicity testing, the halogenated compounds were tested for effects on the growth of KB cells. Populations doubling times were calculated from the logarithmic portions of growth curves and were as follows: […]

HFF cells = assay: Growth of human diploid fibroblasts (HFF cells); type: cell-based; conditions: for population doubling of HFF cells: 100 μM, control cells underwent two doublings
Description: as §4
The effect of these compounds on the growth of human diploid fibroblasts (HFF cells) was less pronounced. During a 70-hour incubation, control cells underwent two doublings. […] A 100 μM concentration reduced the number of cells by less than 10%.

HCMV [3] = assay: HCMV titer (yield) reduction assay in HFF cells; type: cell-based, human cytomegalovirus (Towne strain); conditions: for HCMV titer reduction, fold better than acyclovir: FIG. 1; for HCMV titer reduction activity: in words, FIG. 2 or FIG. 3
Excerpt: as §1, §2
For titer reduction assays, HFF cells were planted as described above in 24-well cluster dishes or in 25 cm^2 flasks. When monolayers were approximately 70% confluent, HCMV was added at a m.o.i. of 0.5 p.f.u. per cell and adsorbed as detailed above. Compounds dissolved in growth medium were added in one or one-half logarithm 10 dilutions and incubation continued at 37° C. After 7 to 10 days of incubation, culture dishes or flasks were frozen at […] For titer determination, cells were thawed and then subjected to two more cycles of freezing and thawing at 37° C. Serial, one-logarithm10 dilutions of the final suspension were prepared and inoculated onto new cultures of HFF cells. Titer determination was as detailed above in part (1) (b).
as §3

MCMV = assay: Mortality of mice infected with murine cytomegalovirus; type: in vivo
Description: Compound UMJD 183 was tested in mice infected with murine cytomegalovirus (MCMV). This animal model has been recognized as having capabilities predictive of efficacy in humans.
(§5) Compound UMJD 183 and the drug ganciclovir (DHPG) were administered to groups of 15 mice each at doses and times of administration shown in Table 3. Each compound at all doses was administered intraperitoneally twice daily for five days beginning at either 6, 24 or 48 hours after virus inoculation. Animals were observed daily and the number dying each day recorded.
^a Animlas were treated i.p. twice daily for 5 days with the doses
stated above. Treatment was initiated at the times indicated following

[4] = Drug toxicity control in uninfected mice; type: in vivo
Description: as §5
Even when the compound was administered 48 hours after virus infection, compound UMJD 183 reduced mortality from 80-93% in controls to 40% in the presence of 5.6 mg/kg of the drug. When UMJD 183 was administered sooner, 6 or 24 hours after virus infection, mortality was reduced further to 7 or 20%, respectively.
^d Drug toxicity control. No virus administered.

[5] = previously reported; cited from earlier work
[6] = 1.9 mg/kg i.p. twice daily, from 6 h
[7] = 1.9 mg/kg i.p. twice daily, from 24 h
[8] = 1.9 mg/kg i.p. twice daily, from 48 h
[9] = 5.6 mg/kg i.p. twice daily, from 6 h
[10] = 5.6 mg/kg i.p. twice daily, from 24 h
[11] = 5.6 mg/kg i.p. twice daily, from 48 h
[12] = 16.7 mg/kg i.p. twice daily, from 6 h
[13] = 16.7 mg/kg i.p. twice daily, from 24 h
[14] = 16.7 mg/kg i.p. twice daily, from 48 h
[15] = 50 mg/kg i.p. twice daily, from 6 h
[16] = 50 mg/kg i.p. twice daily, from 24 h
[17] = 50 mg/kg i.p. twice daily, from 48 h

In the case of `Nc1nc2c(ncn2COCCO)c(=O)[nH]1` [Acyclovir, reference compound], the “activity against HCMV” value (HCMV [1]) is reported as “only modest activity against HCMV” and the CC50 [2] is reported as greater than 100 µM.

For `Nc1ncnc2c1c(Cl)cn2COCCO` [UMJD 100, 4-Amino-5-chloro-7-(2-hydroxyethoxymethyl)pyrrolo[2,3-d]-pyrimidine], the “activity against HCMV” value (HCMV [1]) was “active against HCMV”, the “effect on KB cell growth” value (KB cells; 100 μM, in words) was “affected KB cell growth to only a minor extent” and the “decrease in number of HFF cells” value (HFF cells; 10 or 32 μM, 70 hours, in words) was “no decrease in the number of cells”.

For `Nc1ncnc2c1c(Br)cn2COCCO` [UMJD 102, 4Amino-5-bromo-7-(2-hydroxyethoxymethyl)pyrrolo[2,3-d]-pyrimidine], the “HCMV titer reduction, fold better than acyclovir” value (HCMV [3]) was “approximately 10 fold”, the “activity against HCMV” value (HCMV [1]) was “active against HCMV” and the cytostatic effect (KB cells; in words) was “cytostatic”. For the same molecule, the “population doubling of HFF cells” value (HFF cells; 70 hours) was “one population doubling” and the “effect on growth of HFF cells” value (HFF cells; in words) was “more pronounced”.

For `Nc1ncnc2c1c(I)cn2COCCO` [UMJD 104, 4-Amino-5-iodo-7-(2-hydroxyethoxymethyl)pyrrolo[2,3-d]-pyrimidine], the “HCMV titer reduction, fold better than acyclovir” value (HCMV [3]) was “approximately 10 fold”, the “activity against HCMV” value (HCMV [1]) was “active against HCMV” and the “population doubling of HFF cells” value (HFF cells; 70 hours) was “one population doubling”. The “effect on growth of HFF cells” value (HFF cells; in words) was “more pronounced”.

In the case of `Nc1ncnc2c1c(Br)cn2COC(CO)CO` [UMJD 183, 4-amino-5-bromo-7-[(1,3-dihydroxy-2-propoxy)methyl]-pyrrolo[2,3-d]pyrimidine], the “MDD (Mean Day of Death)” value (MCMV; [6]) is reported as 6.2, the “Mortality Percent” value (MCMV; [6]) is reported as 33% and the “MDD (Mean Day of Death)” value (MCMV; [7]) is reported as 4.8. The “Mortality Percent” value (MCMV; [7]) was 60%, the “MDD (Mean Day of Death)” value (MCMV; [8]) was 4.8 and the “Mortality Percent” value (MCMV; [8]) was 67%. The “MDD (Mean Day of Death)” value (MCMV; [9]) was 8.0, the “Mortality Percent” value (MCMV; [9]) was 7% and the “MDD (Mean Day of Death)” value (MCMV; [10]) was 6.3. For the same molecule, the “Mortality Percent” value (MCMV; [10]) was 20%, the “MDD (Mean Day of Death)” value (MCMV; [11]) was 5.5 and the “Mortality Percent” value (MCMV; [11]) was 40%. The “increase in number of animals surviving” value (MCMV; 5.6 mg/kg i.p., in words) was “highly significant increases in the number of animals surviving the virus infection”, the “MDD (Mean Day of Death)” value (MCMV; [12]) was 8.7 and the “Mortality Percent” value (MCMV; [12]) was 60%. For the same molecule, the “MDD (Mean Day of Death)” value (MCMV; [13]) was 7.1, the “Mortality Percent” value (MCMV; [13]) was 80% and the “MDD (Mean Day of Death)” value (MCMV; [14]) was 8.4. For the same molecule, the “Mortality Percent” value (MCMV; [14]) was 87%, the “MDD (Mean Day of Death)” value (MCMV; [15]) was 10.8 and the “Mortality Percent” value (MCMV; [15]) was 60%. For the same molecule, the “MDD (Mean Day of Death)” value (MCMV; [16]) was 8.8, the “Mortality Percent” value (MCMV; [16]) was 93% and the “MDD (Mean Day of Death)” value (MCMV; [17]) was 7.5. The “Mortality Percent” value (MCMV; [17]) was 97%, the “effect on life span (mean day of death)” value (MCMV; all doses, i.p.) was “prolonged life span (increased the mean day of death) at all doses” and the “HCMV titer reduction activity” value (HCMV [3]) was “most active”. For the same molecule, the “time of KB cell growth in the presence of the drug before slowing or stopping” value (KB cells; KB cells) was “up to 20 hours”, the “effect on growth of KB cells” value (KB cells; in words) was “growth of KB cells also was inhibited, but to a lesser extent” and the “growth in the presence of up to 32 μM drug” value (KB cells; up to 32 μM, 50 hours) was “at a reduced rate”. The “MDD (Mean Day of Death), Toxicity” value ([4]; 16.7 mg/kg, no virus) was 5.0, the “deaths in uninfected animals” value ([4]; all doses together, i.p.) was 1 death in 60 animals and the “toxicity in uninfected animals” value ([4]; in words, i.p.) was “virtually no toxicity”.

In the case of `NC(=S)c1cn(COCCO)c2ncnc(N)c12` [UMJD 229, 4-Amino-7-(2-hydroxyethoxymethyl)pyrrolo[2,3-d]pyrimidine-5-thiocarboxamide], the “activity against HCMV” value (HCMV [1]) is reported as “active against HCMV”.

With `OCC(CO)OCn1cc(Br)c2c(NO)ncnc21` [UMJD 299, 4-hydroxylamino-5-bromo-7-[(1,3-dihydroxy-2-propoxy)methyl]pyrrolo[2,3-d]pyrimidine] the “HCMV titer reduction activity” value (HCMV [3]) was “active and nearly as potent as the 4-amino analogs”.

With `OCC(CO)OCn1cc(Cl)c2c(NO)ncnc21` [UMJD 328, 4-hydroxylamino-5-chloro-7-[(1,3-dihydroxy-2-propoxy)methyl]pyrrolo[2,3-d]pyrimidine] the “HCMV titer reduction activity” value (HCMV [3]) was “active and nearly as potent as the 4-amino analogs”.

For `OCC(CO)OCn1cc(I)c2c(NO)ncnc21` [UMJD 329, 4-hydroxylamino-5-iodo-7-[(1,3-dihydroxy-2-propoxy)methyl]pyrrolo[2,3-d]pyrimidine], the “HCMV titer reduction activity” value (HCMV [3]) was “active and nearly as potent as the 4-amino analogs”.

In the case of `NC(=O)c1cn([C@@H]2O[C@H](CO)[C@@H](O)[C@H]2O)c2ncnc(N)c12` [sangivamycin], the “broad spectrum antiviral activity” value [5] is listed as “Broad spectrum antiviral activity”.

In the case of `N#Cc1cn([C@@H]2O[C@H](CO)[C@@H](O)[C@H]2O)c2ncnc(N)c12` [toyocamycin], the “broad spectrum antiviral activity” value [5] is listed as “Broad spectrum antiviral activity”.

For `Nc1ncnc2c1ccn2[C@@H]1O[C@H](CO)[C@@H](O)[C@H]1O` [tubercidin], the “broad spectrum antiviral activity” value [5] is listed as “Broad spectrum antiviral activity”.
